Experimental findings from US7816371B2, “Bicycloheteroaryl compounds as P2X7 modulators and uses thereof” (Renovis, Inc., priority 2006, dated 2010) are described below.

Tested on in the first data set: not listed separately
Put plainly: Determination of aqueous (kinetic) solubility. Format: physicochemical. Conditions: buffer pH 7.4, room temperature. How it is done: The mixture was vortexed for 1 hour and equilibrated overnight at room temperature. The mixture was filtered through a saturated filter and the filtrate was analyzed by LC/MS/MS.
The compound `Cc1ccc2c(c1NC(=O)Cc1ccc(C(F)(F)F)c(F)c1)CCN([C@H](C)CO)C2=O` [Compound 401, N-[6-Methyl-2-((R)-2-hydroxy-1-methyl-ethyl)-1-oxo-1,2,3,4-tetrahydro-isoquinolin-5-yl]-2-(3-fluoro-4-trifluoromethyl-phenyl)-acetamide] gave a solubility of more than 75 µM.

Tested on in another data set: not listed separately
The experiment in a line: Pharmacokinetic evaluation following intravenous and oral administration in rats (oral bioavailability). The data set is classed as in vivo, Male Sprague-Dawley rats. The following applies: PO 1 to 5 mg/kg vs IV 1 mg/kg, AUCinf normalized to dose. On the procedure: Male Sprague-Dawley rats are acclimatized for at least 24 hours prior to experiment initiation. […] During the first 3 hours of experimentation, the animals receive only water ad libitum. At least three animals each are tested for intravenous and oral dosage. For intravenous formulation, compounds were dissolved (0.25 to 1 mg/mL) in a mixture of 3% dimethyl sulfoxide, 40% PEG 400 and the rest percentage of 40% Captisol in water (w/v). The animals are weighed before dosing. The determined body weight is used to calculate the dose volume for each animal.
PO rats are typically dosed through oral gavage following the same dose volume formula as IV to achieve a dose level of 1 to 5 mg/kg. […] About 250 uL of blood is obtained at each time point from the animal. Equal volumes of 0.9% normal saline are replaced to prevent dehydration. The whole blood samples are maintained on ice until centrifugation. Blood samples are then centrifuged at 14,000 rpm for 10 minutes at 4° C. and the upper plasma layer transferred into a clean vial and stored at −80° C. The resulting plasma samples are then analyzed by liquid chromatography-tandem mass spectrometry. Following the measurement of plasma samples and dosing solutions, plasma concentration-time curve is plotted. […] The % F is reported as the mean % F of all animals dosed orally with the compound of the invention at the specified level (see Table 4 below).
As to `Cc1ccc2c(=O)n([C@H](C)CO)ccc2c1NC(=O)Cc1cccc(C(F)(F)F)c1F` [Compound 395], the “Oral Bioavailability F (%)” value is reported as “++ (26-50% F)”.

The target in the next data set is T1, P2X7 receptor (Homo sapiens, UniProt Q99572).
T1 construct: host or cells: THP-1 cells differentiated with LPS and IFN-γ
T1 sequence (Q99572 1-595): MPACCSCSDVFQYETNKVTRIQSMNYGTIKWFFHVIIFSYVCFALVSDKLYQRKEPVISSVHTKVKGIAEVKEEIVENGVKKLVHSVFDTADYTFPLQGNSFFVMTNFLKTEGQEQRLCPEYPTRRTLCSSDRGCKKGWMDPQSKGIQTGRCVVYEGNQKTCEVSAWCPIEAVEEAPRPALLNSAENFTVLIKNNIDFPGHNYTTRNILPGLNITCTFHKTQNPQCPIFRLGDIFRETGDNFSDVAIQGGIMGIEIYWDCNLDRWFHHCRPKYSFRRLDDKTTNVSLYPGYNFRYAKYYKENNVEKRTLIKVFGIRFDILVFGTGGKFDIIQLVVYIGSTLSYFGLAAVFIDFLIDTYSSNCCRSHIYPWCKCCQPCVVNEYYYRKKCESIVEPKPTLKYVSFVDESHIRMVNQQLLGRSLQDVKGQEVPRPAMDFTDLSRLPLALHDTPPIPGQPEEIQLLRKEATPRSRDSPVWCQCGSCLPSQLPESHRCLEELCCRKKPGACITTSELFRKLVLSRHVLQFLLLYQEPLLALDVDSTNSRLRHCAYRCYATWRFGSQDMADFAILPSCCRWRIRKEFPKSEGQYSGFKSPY
Put plainly: IL-1β release assay in differentiated THP-1 cells stimulated with BzATP (Example 9); % inhibition and IC50. Format: cell-based. Conditions: THP-1 cells differentiated with LPS and IFN-γ, 30 min pretreatment, BzATP 250 uM, IL-1β by ELISA. A digest of the protocol: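 Differentiated THP-1 cells pretreated 30 min with compound in RPMI before BzATP stimulation. Supernatant IL-1β measured by ELISA. Percent inhibition derived from background-adjusted IL-1β of treated versus untreated cells.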
Take `Cc1ccc2c(c1NC(=O)Cc1ccc(C(F)(F)F)c(F)c1)CCN([C@H](C)CO)C2=O` [Compound 401, N-[6-Methyl-2-((R)-2-hydroxy-1-methyl-ethyl)-1-oxo-1,2,3,4-tetrahydro-isoquinolin-5-yl]-2-(3-fluoro-4-trifluoromethyl-phenyl)-acetamide]: the IC50 was found to be 1.44 nM.
Still for that read-out and setting: next, `O=C(Cc1ccc(Cl)c(C(F)(F)F)c1)Nc1cccc2c(=O)n(CC3CCNCC3)ccc12` [Compound 257, 2-(4-Chloro-3-trifluoromethyl-phenyl)-N-(1-oxo-2-piperidin-4-ylmethyl-1,2-dihydro-isoquinolin-5-yl)-acetamide]: 39 nM; `NC(=O)[C@H](CO)n1ccc2c(NC(=O)Cc3ccc(Cl)c(C(F)(F)F)c3)cccc2c1=O` [Compound 250, (S)-2-{5-[2-(4-Chloro-3-trifluoromethyl-phenyl)-acetylamino]-1-oxo-1H-isoquinolin-2-yl}-3-hydroxy-propionamide]: 15.1 nM; `C[C@H](CO)n1ccc2c(NC(=O)Cc3ccc(Cl)c(Cl)c3)cccc2c1=O` [Compound 333, 2-(3,4-Dichloro-phenyl)-N-[2-((R)-2-hydroxy-1-methyl-ethyl)-1-oxo-1,2-dihydro-isoquinolin-5-yl]-acetamide]: 1.01 nM.
On the same count and under the same terms, next, `O=C(Cc1ccc(Cl)c(C(F)(F)F)c1)Nc1cccc2c(=O)n(C[C@H]3CCCN3)ccc12` [Compound 243]: 35.8 nM; `CNC(=O)[C@@H](CO)n1ccc2c(NC(=O)C(C)c3ccc(Cl)cc3)cccc2c1=O` (stereo partly shown) [Compound 261]: 188 nM.
For `C[C@H](C(N)=O)n1ccc2c(NC(=O)Cc3ccc(F)c(F)c3)cccc2c1=O` [Compound 303], the IC50 was 15.5 nM.
Still for that read-out and setting: the same measure for `C[C@H](C(N)=O)n1ccc2c(NC(=O)Cc3ccc(Cl)cc3F)cccc2c1=O` [Compound 290]: 7.63 nM; for `O=C(Cc1ccc(Cl)cc1C(F)(F)F)Nc1cccc2c(=O)n(CCO)ccc12` [Compound 229]: 187 nM; for `CC(C)[C@H](C(N)=O)n1ccc2c(NC(=O)[C@H](C)c3ccc(Cl)cc3)cccc2c1=O` [Compound 284, (R)-2-{5-[(R)-2-(4-Chloro-phenyl)-propionylamino]-1-oxo-1H-isoquinolin-2-yl}-3-methyl-butyramide]: 6.91 nM.
Same read-out and setting: next, `COc1ccc(OC)c(CC(=O)Nc2cccc3c(=O)n(CCO)ccc23)c1` [Compound 77]: more than 1000 nM; `C[C@H](C(N)=O)n1ccc2c(NC(=O)Cc3cccc(OC(F)(F)F)c3)cccc2c1=O` [Compound 313]: 713 nM; `C[C@H](CO)n1ccc2c(NC(=O)Cc3ccc(Cl)c(C(F)(F)F)c3)cccc2c1=O` [Compound 362]: 1.14 nM.
For the compound `CC(C(=O)Nc1cccc2c(=O)n([C@@H](C)C(N)=O)ccc12)c1ccc(Cl)c(C(F)(F)F)c1` (stereo partly shown) [Compound 356], the IC50 came out at 15.5 nM.
As for `C[C@H](C(N)=O)n1ccc2c(NC(=O)Cc3ccc(F)c(Cl)c3)cccc2c1=O` [Compound 301], the half-inhibitory concentration (IC50) was determined as 3.57 nM.
On the same count and under the same terms, the same measure for `Cc1ccc(CC(=O)Nc2cccc3c(=O)n([C@H](C)C(N)=O)ccc23)cc1F` [Compound 302]: 32.2 nM; for `O=C(Cc1ccc(Cl)c(C(F)(F)F)c1)Nc1cccc2c(=O)n(C[C@@H]3CCCN3)ccc12` [Compound 232, 2-(4-Chloro-3-trifluoromethyl-phenyl)-N-(1-oxo-2-(S)-1-pyrrolidin-2-ylmethyl-1,2-dihydro-isoquinolin-5-yl)-acetamide]: 10.7 nM.
